The structures appear in SMILES notation. Like-named read-outs stand apart in the source and are kept apart here.

Common to all, as to type: cell-based
Assay [1] concerns A2780. In words: Photo- and cytotoxic activity determination (MTT), A2780 cells. The settings on record: normoxia; for A2780 PI (phototherapeutic index), IC50 dark/IC50 irradiated: dark tested up to 100 μM. From the text: (§1) Having shown that the Ir(III)-COUPY conjugates can sensitize both type I and II ROS through spectroscopic techniques and readily internalize into living cells, their photocytotoxicity was screened in various cancer cell lines. This screening included two representative melanoma cell lines (human A375 and […] human SK-MEL-28) and cancer cells with resistance to the clinical drug cisplatin. For the latter, both sensitive and cisplatin-resistant ovarian cancer cells (A2780 and A2780cis) as well as HeLa cells, which also show a degree of chemoresistance to the platinum anticancer drug in vitro,[54] were used. For the determination of dark and light cytotoxicity, dose–response curves were assayed from both conditions to provide the correspondent IC50 values, which correspond to the concentration needed for inhibition of cell growth by 50%. Phototherapeutic index (PI) was calculated as the ratio of dark to light IC50 value for each compound.
A375, HeLa, and SK-MEL-28 cells were cultured in Dulbecco’s modified Eagle medium (DMEM) supplemented with 10% FBS, L-glutamine, and 1% penicillin–streptomycin. A2780 and A2780cis cells were grown in RPMI-1640 cell medium supplemented with 10% fetal bovine serum (FBS) and 2 mM L-glutamine. Acquired resistance to cisplatin in the A2780cis cell line was maintained by adding cisplatin 1 μM to culture medium every second passage. Cells were cultured in a humidified incubator at 310 K with 5% CO2 atmosphere and subcultured two or three times a week with appropriate densities and were confirmed to be mycoplasma-free using a standard Hoechst DNA staining method.
(§2) A2780, A2780cis, HeLa, A375, and SK-MEL-28 cells were maintained at logarithmic growth-phase and cultured in 96-well plates at a density of 5000 cells/well in complete medium for 24 h at 310 K, 5% CO2 in a humidified incubator. For hypoxia experiments, a hypoxia condition was set up by Tissue Culture Service at University of Murcia using nitrogen (N2) to displace O2 down to a minimum of 2% in a Forma Steri-Cycle i160 incubator (Thermo Fisher Scientific). Serial dilutions of the compounds were added at the final concentrations in the range of 0–100 μM in a final volume of 100 μL per well. A light-based treatment schedule was performed as follows: 1 h incubation with the compounds in the dark, followed by 1 h incubation under irradiation conditions by placing the Photoreactor EXPO-LED from Luzchem (Canada) fitted with green lamps (final light intensity applied of 1.5 mW/cm^2 at λmax = 520 nm) inside the CO2 incubator. All the cell culture plates subjected to light irradiation included untreated controls to verify that cell viability was not affected by light. Then, treatment-containing media was removed, and fresh media was added for a 48 h cell recovery period; the temperature throughout the experiment remained at 310 K. Dark control samples were placed in the same dark conditions and then kept incubated for 1 h in the dark in the humidified CO2 incubator. Medium was then aspirated by suction, cells were loaded with 50 μL of MTT solution (1 mg/mL) for additional 4 h and then removed, and 50 μL of DMSO was added to solubilize the purple formazan crystals formed in active cells. The absorbance was measured at 570 nm using a microplate reader (FLUOstar Omega), and the IC50 values were calculated based on the inhibitory rate curves using the following equation [drawing 4] 4 where I represents the percentage inhibition of viability observed, Imax is the maximal inhibitory effect, IC50 is the concentration that inhibits 50% of maximal growth, C is the concentration of the treatment, and n is the slope of the semi-logarithmic dose–response sigmoidal curves. The non-linear fitting was performed using SigmaPlot 14.0 software. All experiments were performed in three independent studies with n = 3 replicates per concentration level. For a detailed phototoxicity procedure, ref ([43]) includes technical explanations.

The subject of assay [2] is A375, SK-MEL-28, HeLa, A2780 and A2780cis cancer cells. In words: Photo- and cytotoxicity, statements across the studied cancer cell lines. The settings on record: for IC50: absence of light, regardless of the cell line, read-out: dark IC50 in the studied cancer cell lines.
Source text: as §1
as §2, with “4 where I represents the percentage inhibition of viability observed, Imax is the maximal inhibitory effect, IC50 is the concentration that inhibits 50% of maximal growth, C is the concentration of the treatment, and n is the slope of the semi-logarithmic dose–response sigmoidal curves. The non-linear fitting was performed using SigmaPlot 14.0 software. All experiments were performed in three independent studies with n = 3 replicates per concentration level. For a detailed phototoxicity procedure, ref ([43]) includes technical explanations.” left out

Assay [3] deals with A2780cis cells. Nature of the assay: Cell death induction (Annexin V/PI staining, FSC/SSC flow cytometry). The settings on record: 10 μM; for mode of cell death (Annexin V/Propidium Iodide): 1 h + 1 h 520 nm, 24 h recovery; for secondary cell population with low FSC/SSC ratios (non-viable morphology): 1 h, 520 nm 1 h. How it is done: Cell death induction was evaluated using the Annexin V-FITC/Propidium iodide (AV/PI) dual staining method. Briefly, A2780cis cells were seeded in 12-well plates at a density of 2 × 10^5 cells/well and incubated overnight at 310 K. Tested compounds (10 μM) were added, following the described treatment schedule (1 h incubation + 1 h irradiation with 520 nm light). Irradiated, non-treated cells served as the control group. After 24 h of the drug-free recovery period, cells were harvested by trypsinization, washed with PBS and centrifuged, and the pellets were resuspended in 200 μL of a binding buffer as instructed by the manufacturer (Cayman). The resuspended cell solution was left at room temperature in the dark for 15 min before analysis by flow cytometry (FACSCalibur BecktonDickinson; 10^4 events acquired per sample). Cells were visualized using λexc = 488 channels and registered at 525 nm and 620 nm for Annexin V and propidium iodide in FL1 and FL2 channels, respectively. Cell populations were classified as follows: AV^-/PI^- (viable cells); AV^-/PI^+ (necrotic cells); AV^+/PI^- and AV^+/PI^+ (apoptotic cells). Alternatively, A2780cis cells were subjected to flow cytometry after phototreatments and morphological changes were analyzed using FSC and SSC contour plots. Data were analyzed using FlowJo software. Three independent experiments were performed.

Assay [4] has as its system A2780cis cells. In words: ROS photogeneration in cells (DCFH-DA probe). The settings on record: 10 μM; for ROS levels after 520 nm light, normoxia: normoxia 21% O2, 520 nm, 1 h; for ROS levels in the absence of light, normoxia: dark. How it is done:
ROS levels were determined using the 2′-7′dichlorofluorescein diacetate (DCFH-DA) probe. A2780cis cells were seeded onto 96-well black plates at 2 × 10^4cells/well for 24 h in a humidified CO2 incubator either in normoxia (21% O2) or hypoxia (2% O2). Tested compounds were then administered in cell media for the allowed time. Treatments were then removed, and cells were stained with 10 μM of DCFH-DA for 0.5 h. After staining, cells were washed with PBS twice and irradiated for 1 h with LED source light from Luzchem photoreactor (Canada) fitted with green lamps (final light intensity applied of 1.5 mW/cm^2 at λmax = 520 nm). Fluorescence readings were performed in FLUOstar Omega (λexc = 488 nm and λem = 530 ± 30 nm). Non-irradiated plates were used for dark conditions, whereas treated, unstained cells were used to subtract basal fluorescence of compounds and correct fluorescence readings. Unstained cells served as blank. Three independent experiments were performed with n = 3 replicates.

Setting [5] is: Homo sapiens, A2780, 1 h incubation + 1 h green light 520 nm, 1.5 mW cm^–2, 48 h drug-free medium, read-out: A2780 light IC50.
Where [6] appears, read: Homo sapiens, A2780, kept in the dark, 2 h treatment, 48 h drug-free medium, read-out: A2780 dark IC50.
[7] abbreviates: 1 h incubation + 1 h green light 520 nm, 1.5 mW cm^–2, 48 h drug-free medium, read-out: A2780 light IC50.
The mark [8] stands for this setting: kept in the dark, 2 h treatment, 48 h drug-free medium, read-out: A2780 dark IC50.

As a reminder, the IC50 is the midpoint of a concentration-inhibition curve. For the compound `CCN(CC)c1ccc2c(c1)O/C(=C(/C#N)c1cc[n+](C)cc1)C=C2C` [1a], the figures for the IC50 in assay [1] (setting [5]) and in assay [1] (setting [6]) were 5.2 ± 0.5 µM and above 100 µM, respectively. Moreover, the “A2780 PI (phototherapeutic index), IC50 dark/IC50 irradiated” value (“A2780 PI (phototherapeutic index)” below) in assay [1] (520 nm) is listed as above 19. Besides, the “fold differences in bioactivity upon irradiation” value in assay [2] (melanoma cells, 520 nm) was “more than 86 fold”.
In the case of `CC1=C/C(=C(\C#N)c2cc[n+](C)cc2)Oc2ccccc21` [1b], the IC50 was above 100 µM in assay [1] (Homo sapiens, A2780, 520 nm, read-out: A2780 Light 520 nm IC50 (microM) Normoxia); above 100 µM in assay [1] (setting [5]); above 100 µM in assay [1] (Homo sapiens, A2780, dark, read-out: A2780 Dark IC50 (microM) Normoxia); above 100 µM in assay [1] (setting [6]). For the same compound, the “antiproliferative activity after light irradiation” value in assay [2] (520 nm, investigated cancer cells) is given as “did not display antiproliferative activity after light irradiation”.
Consider `CC1=C/C(=C(\C#N)c2cc[n+](C)cc2)Oc2c1cc1c3c2CCCN3CCC1` [1c], for which the figures for the IC50 in assay [1] (setting [5]), in assay [1] (setting [6]) and in assay [2] were 0.09 ± 0.01 µM, 5.1 ± 0.9 µM and 5 to 26 µM, respectively. Moreover, the “A2780 PI (phototherapeutic index)” value in assay [1] (520 nm) is recorded as 57.
In the case of `CCCCn1c2[n+](c3cc(C(=O)OC)ccc31)[Ir-3]13([c]4ccccc4-c4[nH]c5ccccc5[n+]41)([c]1ccccc1-c1[nH]c4ccccc4[n+]13)[n+]1c-2ccc2ccccc21` [2a], in assay [1] (520 nm), the “A2780 PI (phototherapeutic index)” value is recorded as above 25. Also, the results for the IC50 in assay [1] (setting [7]) and in assay [1] (setting [8]) were 4 ± 1 µM and above 100 µM, respectively.
As to `CCCCn1c2[n+](c3cc(C(=O)NCCCNC(=O)C[n+]4ccc(/C(C#N)=C5/C=C(C)c6ccc(N(CC)CC)cc6O5)cc4)ccc31)[Ir-3]13([c]4ccccc4-c4[nH]c5ccccc5[n+]41)([c]1ccccc1-c1[nH]c4ccccc4[n+]13)[n+]1c-2ccc2ccccc21` [3a], the “A2780 PI (phototherapeutic index)” value in assay [1] (520 nm) was above 94. The IC50 in assay [1] (setting [7]) came to 1.07 ± 0.07 µM. Further, in assay [1] (setting [8]), the IC50 is above 100 µM. Besides, in assay [3], the “mode of cell death (Annexin V/Propidium Iodide)” value (shortened to “mode of cell death”) was “photoinduced necrotic cell death” and the “secondary cell population with low FSC/SSC ratios (non-viable morphology)” value is “vastly induced these secondary cell populations”. In assay [4], the “ROS levels after 520 nm light, normoxia” value is listed as “strong fluorescence signal” and the “ROS levels in the absence of light, normoxia” value (“ROS levels in the absence” below) is “slightly increased ROS levels”.
`CCCCn1c2[n+](c3cc(C(=O)NCCCNC(=O)C[n+]4ccc(/C(C#N)=C5/C=C(C)c6ccccc6O5)cc4)ccc31)[Ir-3]13([c]4ccccc4-c4[nH]c5ccccc5[n+]41)([c]1ccccc1-c1[nH]c4ccccc4[n+]13)[n+]1c-2ccc2ccccc21` [3b]: the “A2780 PI (phototherapeutic index)” value in assay [1] (520 nm) is listed as above 14. The values for the IC50 in assay [1] (setting [7]) and in assay [1] (setting [8]) were 7.1 ± 0.1 µM and above 100 µM, respectively. Besides, the “secondary cell population with low FSC/SSC ratios (non-viable morphology)” value in assay [3] is “did not produce such changes”. In addition, the “ROS levels after green-light irradiation, hypoxia” value in assay [4] (hypoxia 2% O2, 520 nm) is given as “a slight increase in ROS levels”.
Turning to `CCCCn1c2[n+](c3cc(C(=O)NCCCNC(=O)C[n+]4ccc(/C(C#N)=C5/C=C(C)c6cc7c8c(c6O5)CCCN8CCC7)cc4)ccc31)[Ir-3]13([c]4ccccc4-c4[nH]c5ccccc5[n+]41)([c]1ccccc1-c1[nH]c4ccccc4[n+]13)[n+]1c-2ccc2ccccc21` [3c], the “A2780 PI (phototherapeutic index)” value in assay [1] (520 nm) is above 48. Besides, the results for the IC50 in assay [1] (setting [7]), in assay [1] (setting [8]) and in assay [2] were 2.1 ± 0.2 µM, above 100 µM and above 100 µM, respectively. The “mode of cell death” value in assay [3] was “photoinduced necrotic cell death”. Moreover, the “secondary cell population with low FSC/SSC ratios (non-viable morphology)” value in assay [3] was “vastly induced these secondary cell populations”. For the same compound, the “ROS levels after 520 nm light, normoxia” value in assay [4] was “strong fluorescence signal”.
In the case of `CCCCn1c2[n+](c3cc(C(=O)NCCCCCC(=O)NCCCNC(=O)C[n+]4ccc(/C(C#N)=C5/C=C(C)c6ccc(N(CC)CC)cc6O5)cc4)ccc31)[Ir-3]13([c]4ccccc4-c4[nH]c5ccccc5[n+]41)([c]1ccccc1-c1[nH]c4ccccc4[n+]13)[n+]1c-2ccc2ccccc21` [3d], in assay [1] (520 nm), the “A2780 PI (phototherapeutic index)” value is given as above 56. In addition, the IC50 in assay [1] (setting [7]) is 1.78 ± 0.07 µM. Further, the IC50 in assay [1] (setting [8]) was above 100 µM. In assay [3], the “mode of cell death” value is listed as “photoinduced necrotic cell death” and the “secondary cell population with low FSC/SSC ratios (non-viable morphology)” value is “vastly induced these secondary cell populations”. Besides, in assay [4], the “ROS levels after 520 nm light, normoxia” value is listed as “strong fluorescence signal” and the “ROS levels in the absence” value is “slightly increased ROS levels”.
Turning to `CCCCn1c2[n+](c3cc(C(=O)NC[C@H]4CC[C@H](C(=O)NCCCNC(=O)C[n+]5ccc(/C(C#N)=C6/C=C(C)c7ccc(N(CC)CC)cc7O6)cc5)CC4)ccc31)[Ir-3]13([c]4ccccc4-c4[nH]c5ccccc5[n+]41)([c]1ccccc1-c1[nH]c4ccccc4[n+]13)[n+]1c-2ccc2ccccc21` [3e], the “A2780 PI (phototherapeutic index)” value in assay [1] (520 nm) is above 53. The IC50 in assay [1] (setting [7]) is 1.9 ± 0.2 µM. In addition, the IC50 in assay [1] (setting [8]) is above 100 µM. Also, in assay [3], the “mode of cell death” value is “photoinduced necrotic cell death” and the “secondary cell population with low FSC/SSC ratios (non-viable morphology)” value is “vastly induced these secondary cell populations”. For the same compound, in assay [4], the “ROS levels after 520 nm light, normoxia” value is “strong fluorescence signal” and the “ROS levels in the absence” value was “slightly increased ROS levels”.

For the origin of these results see PMC10291553, “Exploring Structure–Activity Relationships in Photodynamic Therapy Anticancer Agents Based on Ir(III)-COUPY Conjugates” (Journal of Medicinal Chemistry, 2023).
